Reference: publication PMC5501740 (Clinical and experimental allergy : journal of the British …, 2017)
Residues, ends and D or L forms follow the SMILES beside them. *: point of attachment. AMC = Cc1cc(=O)oc2cc(N*)ccc12; Boc = CC(C)(C)OC(=O)*

What was measured:
Assay in all cases: fluorogenic AMC release, Michaelis-Menten fit
Format in all cases: biochemical, Blattella germanica
Conditions in all cases: read-out: Substrate Km (μM) / QAR / Trypsin; 50 mM Tris-HCl pH 8, 0.2% NP40, 1.5 mM CaCl2
[1] = tested on: E3
[2] = tested on: E2
[3] = tested on: E1

Km [1]: 3 ± 0.3 µM
Km [2]: 2 ± 0.3 µM
Km [3]: 3 ± 0.8 µM
SMILES: Cc1cc(=O)oc2cc(NC(=O)[C@H](CCCNC(=N)N)NC(=O)[C@H](C)NC(=O)[C@H](CCC(N)=O)NC(=O)OC(C)(C)C)ccc12 [QAR, Boc-Glutamine-Alanine-Arginine (QAR)-aminomethylcoumarin] (Boc-Gln-Ala-Arg-{AMC})
